For three compounds, IC50 results are on record in ChEMBL document CHEMBL1148982, “Novel cytotoxic thiodiketopiperazine derivatives from a Tilachlidium sp” (2004).

For the test, the system named is P388. Put plainly: Cytotoxicity against mouse P388 cells after 1 to 11 days by MTT assay. In kind it is functional. The conditions noted are these: read-out: ID50 (the source's name).
`CN1C(=O)[C@]23SS[C@]1(CO)C(=O)N2[C@H]1Nc2ccccc2[C@@]1(c1c[nH]c2ccccc12)[C@@H]3O` [T988 C]: the IC50 worked out at 0.56 µM. As for `CN1C(=O)[C@]23SSS[C@]1(CO)C(=O)N2[C@H]1Nc2ccccc2[C@@]1(c1c[nH]c2ccccc12)[C@@H]3O`, the IC50 was found to be 0.25 µM. With `CS[C@@]1(CO)C(=O)N2[C@H]3Nc4ccccc4[C@@]3(c3c[nH]c4ccccc34)[C@H](O)[C@]2(SC)C(=O)N1C` [T988 B] the figure was 2.18 µM.
